Data: patent US8962844B2, “1,3,4-oxadiazole and 1,3,4-thiadiazole β-lactamase inhibitors” (priority 2012, dated 2015)
Where a name gives a salt, the structure may show the parent alone.

What was measured:
[1] = system: bacterial strains that express the class D cephalosporinase OXA-15; experiment: Standard BLI potentiation MIC / synergy MIC (sMIC) assays run in the presence of a β-lactam, OXA-15 expressing strains; type: cell-based, E. coli; details: BLI in combination with a β-lactam; comparison with Avibactam (comparator compound CCC)
Excerpt: (§1) Unless otherwise indicated, the activity of the BLI compounds can be described by the MIC value obtained from a Synergy MIC assay or a BLI potentiation assay (e.g as described herein), both of which are run in the presence of a β-lactam.
(§2) A set of β-lactamase expressing isogenic E. coli strains was constructed by cloning a β-lactamase gene into a customized derivative of pBR322 (GenBank Accession Number J01749) and transforming the engineered plasmids into E. coli. The NdeI restriction site within the plasmid backbone of pBR322 was removed to generate pBR322 ΔNdeI. The pBR322 ΔNdeI vector itself, minus the blaTEM-1 gene, was amplified using two primers: (1) pBR-Pbla 5′-cgcatatgactettectttttcaatattattg-3, SEQ ID 1, a primer with an engineered NdeI restriction site at the 3′ end of the blaTEM-1 promoter and (2) pBR-vec-1 5′-[…]-3′, SEQ ID 2, a primer with an engineered BamHI restriction site at the 3′ end of the blaTEM-1 open reading frame. The chloramphenicol resistance gene, cat, was generated by PCR amplification from pKD3 (GenBank Accession Number AY048742) using primers with an engineered NdeI restriction site at the 5′ end (Pbla-cat 5′-[…]-3′, SEQ ID 3) and an engineered BamHI restriction site at the 3′ end (Vec-1-cat 5′-[…]-3′, SEQ ID 4) of the resistance gene. The two PCR products, pBR322 ΔNdeI and cat were ligated together generating pBR-CBST (pBR322 ΔNdeI ΔTEM-1::cat Seq. ID 5) which retains both the pBR322 tetracycline resistance cassette, tetA, and the plasmid origin of replication but the blaTEM-1 gene was replaced by the cat gene.
(§3) Using this engineering strategy a number of plasmids producing β-lactamase genes from different classes (see below) were generated using synthetic genes with an engineered NdeI restriction site at the 5′ end and BamHI restriction site at the 3′ end of each gene (GenScript). Both the synthetic β-lactamase genes and cat gene were ligated into the NdeI/BamHI sites of the pBR322 ΔNdeI PCR product and transformed into electrocompetent E. coli ElectroMax DH10B (Invitrogen/Life Technologies). E. coli DH10B harboring the recombinant plasmids were selected on LB agar (supplemented with 25 μg/mL tetracycline) and single isolated colonies were then inoculated into 5 mL LB media (supplemented with 25 μg/mL tetracycline), and incubated at 37° C. with aeration (250 rpm) for 18 hrs. The cultures were frozen back at −80° C. in 20% glycerol. The DNA sequence of the cloned β-lactamase genes was confirmed. The β-lactamase gene expression in the recombinant E. coli strains was driven by the blaTEM-1 promoter in the pBR-CBST plasmid and was characterized by MIC profiling of the E. coli recombinant strains against comparator β-lactam/BLI combinations in broth microdilution assay.
(§4) The experimental protocol was performed according to Clinical and Laboratory Standards Institute (CLSI) guidelines with modifications as described below (CLSI guidelines can be derived from the CLSI document M07-A9 published in January 2012: “Methods for Dilution Antimicrobial Susceptibility Tests for Bacteria That Grow Aerobically; Approved Standard-Ninth Edition”).
(§5) To prepare for MIC testing, frozen glycerol stocks of clinical isolates (Klebsiella pneumoniae, Eschericia coli, Enterobacter spp, Citrobacter spp, or Pseudomonas aeruginosa) were used to streak for isolated colonies on rich, non-selective, tryptic soy agar containing 5% sheep's blood (TSAB). Frozen glycerol stocks of laboratory engineered, isogenic E. coli strains, which contain cloned β-lactamase expressing plasmids were used to streak for isolated colonies on rich, selective LB agar supplemented with 25 μg/mL tetracycline to maintain the plasmid. All strains were incubated at 37° C. for 18-24 hrs.
(§6) On the day of testing, primary cultures were started by scraping off 5-10 colonies from the TSAB plates containing clinical strains or the tetracycline supplemented LB plates containing engineered strains. […]

[2] = system: bacterial strains that express KPC β-lactamases; experiment: Standard BLI potentiation MIC / synergy MIC (sMIC) assays run in the presence of a β-lactam, KPC expressing strains; type: cell-based; details: more active for at least one KPC strain and/or better spectrum of activity than Avibactam; BLI in combination with a β-lactam
Excerpt: as §1, §2, §3, §4, §5, §6

Row | SMILES | activity against bacterial strains that express the class D cephalosporinase OXA-15, compared with Avibactam [1] | activity and/or spectrum of activity against bacterial strains that express KPC β-lactamases, compared with Avibactam [2]
1 | N[C@H]1CC[C@@H](c2nnc([C@@H]3CC[C@@H]4CN3C(=O)N4OS(=O)(=O)O)o2)C1 [Compound 768, (2S,5R)-2-(5-((1R,3S)-3-aminocyclopentyl)-1,3,4-oxadiazol-2-yl)-7-oxo-1,6-diazabicyclo[3.2.1]octan-6-yl hydrogen sulfate] | more active than Avibactam | more active than Avibactam
2 | O=C1N2C[C@@H](CC[C@H]2c2nnc(CCNCCO)o2)N1OS(=O)(=O)O [Compound 736, (2S,5R)-2-(5-(2-((2-hydroxyethyl)amino)ethyl)-1,3,4-oxadiazol-2-yl)-7-oxo-1,6-diazabicyclo[3.2.1]octan-6-yl hydrogen sulfate] | more active than Avibactam | more active than Avibactam
3 | N=C(N)N1CC(c2nnc([C@@H]3CC[C@@H]4CN3C(=O)N4OS(=O)(=O)O)o2)C1 [Compound 709, (2S,5R)-2-(5-(1-carbamimidoylazetidin-3-yl)-1,3,4-oxadiazol-2-yl)-7-oxo-1,6-diazabicyclo[3.2.1]octan-6-yl hydrogen sulfate] | more active than Avibactam | more active than Avibactam
4 | N[C@H]1C[C@H](CCc2nnc([C@@H]3CC[C@@H]4CN3C(=O)N4OS(=O)(=O)O)o2)C1 [Compound 753, (2S,5R)-2-(5-(2-((1r,3R)-3-aminocyclobutyl)ethyl)-1,3,4-oxadiazol-2-yl)-7-oxo-1,6-diazabicyclo[3.2.1]octan-6-yl hydrogen sulfate] | more active than Avibactam | more active than Avibactam
5 | N[C@H]1C[C@H](Cc2nnc([C@@H]3CC[C@@H]4CN3C(=O)N4OS(=O)(=O)O)o2)C1 [Compound 751, (2S,5R)-2-(5-(((1r,3S)-3-aminocyclobutyl)methyl)-1,3,4-oxadiazol-2-yl)-7-oxo-1,6-diazabicyclo[3.2.1]octan-6-yl hydrogen sulfate] | more active than Avibactam | more active than Avibactam
6 | O=C1N2C[C@@H](CC[C@H]2c2nnc(COC3CNC3)o2)N1OS(=O)(=O)O [Compound 744, (2S,5R)-2-(5-((azetidin-3-yloxy)methyl)-1,3,4-oxadiazol-2-yl)-7-oxo-1,6-diazabicyclo[3.2.1]octan-6-yl hydrogen sulfate] | more active than Avibactam | more active than Avibactam
7 | CNCCc1nnc([C@@H]2CC[C@@H]3CN2C(=O)N3OS(=O)(=O)O)o1 [Compound 722, (2S,5R)-2-(5-(2-(methylamino)ethyl)-1,3,4-oxadiazol-2-yl)-7-oxo-1,6-diazabicyclo[3.2.1]octan-6-yl hydrogen sulfate] | more active than Avibactam | more active than Avibactam
8 | O=C1N2C[C@@H](CC[C@H]2c2nnc(CN3CCNCC3)o2)N1OS(=O)(=O)O [Compound 777, (2S,5R)-7-oxo-2-(5-(piperazin-1-ylmethyl)-1,3,4-oxadiazol-2-yl)-1,6-diazabicyclo[3.2.1]octan-6-yl hydrogen sulfate] | more active than Avibactam | more active than Avibactam
9 | NCCCc1nnc([C@@H]2CC[C@@H]3CN2C(=O)N3OS(=O)(=O)O)o1 [Compound 720, (2S,5R)-2-(5-(3-aminopropyl)-1,3,4-oxadiazol-2-yl)-7-oxo-1,6-diazabicyclo[3.2.1]octan-6-yl hydrogen sulfate] | more active than Avibactam | more active than Avibactam
10 | N=C(N)NCCc1nnc([C@@H]2CC[C@@H]3CN2C(=O)N3OS(=O)(=O)O)s1 [Compound 794, (2S,5R)-2-(5-(2-guanidinoethyl)-1,3,4-thiadiazol-2-yl)-7-oxo-1,6-diazabicyclo[3.2.1]octan-6-yl hydrogen sulfate] | more active than Avibactam | more active than Avibactam
11 | N=C(N)N1CC(Cc2nnc([C@@H]3CC[C@@H]4CN3C(=O)N4OS(=O)(=O)O)o2)C1 [Compound 741, (2S,5R)-2-(5-((1-carbamimidoylazetidin-3-yl)methyl)-1,3,4-oxadiazol-2-yl)-7-oxo-1,6-diazabicyclo[3.2.1]octan-6-yl hydrogen sulfate] | more active than Avibactam | more active than Avibactam
12 | CNCCCc1nnc([C@@H]2CC[C@@H]3CN2C(=O)N3OS(=O)(=O)O)o1 [Compound 734, (2S,5R)-2-(5-(3-(methylamino)propyl)-1,3,4-oxadiazol-2-yl)-7-oxo-1,6-diazabicyclo[3.2.1]octan-6-yl hydrogen sulfate] | more active than Avibactam | more active than Avibactam
13 | N[C@@H]1CC[C@H](c2nnc([C@@H]3CC[C@@H]4CN3C(=O)N4OS(=O)(=O)O)o2)C1 [Compound 729, (2S,5R)-2-(5-((1S,3R)-3-aminocyclopentyl)-1,3,4-oxadiazol-2-yl)-7-oxo-1,6-diazabicyclo[3.2.1]octan-6-yl hydrogen sulfate] | more active than Avibactam | more active than Avibactam
14 | O=C1N2C[C@@H](CC[C@H]2c2nnc(CCN3CCNCC3)o2)N1OS(=O)(=O)O [Compound 776, (2S,5R)-7-oxo-2-(5-(2-(piperazin-1-yl)ethyl)-1,3,4-oxadiazol-2-yl)-1,6-diazabicyclo[3.2.1]octan-6-yl hydrogen sulfate] | more active than Avibactam | more active than Avibactam
15 | N=C(N)Nc1nnc([C@@H]2CC[C@@H]3CN2C(=O)N3OS(=O)(=O)O)o1 [Compound 738, (2S,5R)-2-(5-guanidino-1,3,4-oxadiazol-2-yl)-7-oxo-1,6-diazabicyclo[3.2.1]octan-6-yl hydrogen sulfate] | more active than Avibactam | more active than Avibactam
16 | N=C(N)NC1(Cc2nnc([C@@H]3CC[C@@H]4CN3C(=O)N4OS(=O)(=O)O)o2)CC1 [Compound 739, (2S,5R)-2-(5-((1-guanidinocyclopropyl)methyl)-1,3,4-oxadiazol-2-yl)-7-oxo-1,6-diazabicyclo[3.2.1]octan-6-yl hydrogen sulfate] | more active than Avibactam | more active than Avibactam
